# Measurements taken from US20040010018A1, “Treatment of neuropathic pain” (priority 2002, published 2004).
# Entries after “also recorded” stand apart in the source; their conditions may differ. Where a name gives a salt, the structure may show the parent alone.
# Experiments:
# [1] = observed side effects / behaviors after injection in neuropathic rats; assay type: in vivo, rat
# [2] = system: neuropathic pain (mechanical allodynia); assay: mechanical allodynia (von Frey) in the rat spinal nerve ligation model of neuropathic pain; assay type: in vivo; details: for effect of antagonist pretreatment on A-85380 induced anti-allodynia: A-85380 0.75 μmol/kg i.p.
# From the text: Under halothane anesthesia, the L5 and L6 spinal nerves were tightly ligated in the manner described previously by Chung et al. (Kim S. H., Chung J. M., An experimental model for peripheral neuropathy produced by segmental spinal nerve ligation in the rat. Pain 1992; 50:355-363.). Briefly, an incision was made on the dorsal portion of the hip, and the muscle was blunt dissected to reveal the spinal processes. The L6 transverse process was removed, and the left L5 and L6 spinal nerves were tightly ligated with 5.0 braided silk suture. The wound was cleaned, the membrane sewn with 4.0 dissolvable Vicryl suture and the skin closed with wound clips.
# Implantation of the DRG catheters was performed immediately following nerve ligation, with animals maintained under halothane for the entire procedure (35-40 minutes). Catheters were constructed of PE 20 with small pieces of tygon tubing cemented along the catheter to allow for suture anchoring points during surgery. The left L5 DRG was exposed by removing the posterior articular process of the L5 vertebra. Gelfoam was inserted into the cavity to prevent the catheter from damaging the ganglion. The catheter was sutured to the muscle and fascia, then run subcutaneously to exteriorize between the shoulder blades. Saline was infused into the catheter, and it was heat sealed.
# The implantation of i.c.v. cannulae were conducted under sodium pentobarbital (50 mg/kg, i.p. Nembutal) anesthesia with nerve ligation occurring just after the implantation; animals were maintained under anesthesia for the entire procedure (40-45 minutes). Animals were implanted with a 22 gauge guide cannulae (Plastics One, Roanoke Va.) cut to 6 mm. The stereotaxic coordinates from bregma were 1.0 mm posterior, 1.6 mm lateral, and 4.5 ventral (Paxinos G. and Watson C., The rat brain in stereotaxic coordinates. New York: Academic Press, 1997). Three skull screws were attached for stability, and the implant was covered with cranioplastic acrylic.
# For i.c.v. (intracerebroventricular) infusion, chlorisondamine (10 μg) was dissolved in 5 μl phosphate buffered saline and infused by syringe pump at a rate of 5 μl/min. The infusion was performed 24 hours prior to testing in order to reduce stress to the animals immediately prior to behavioral testing.
# For all other routes of administration including intraperotineal (i.p.), intradermal (i.d.) or onto the DRG, chlorisondamine was dissolved in saline. The final volumes for i.p. injections were 1 ml/kg, for i.d. were 50 μl and for DRG injections were 10 μl. All injections were made by hand held syringe.
# For the assessment of neuropathic pain, mechanical allodynia in the affected paw of animals who had undergone spinal nerve ligation was evaluated using von Frey filaments. As described previously (Chaplan et al, Quantitative assessment of tactile allodynia in the rat paw. J Neurosci Meth, 1994; 53:55-62), two weeks following surgery, rats were acclimated to the testing box which was constructed of plexiglass with a wire mesh floor to allow access to the planter surface of the hind paws. Using the Dixons Up-Down method, a baseline level of allodynia was taken with allodynia defined as a withdrawal threshold <4 g. Test compounds were then administered and subsequent withdrawal thresholds determined.
# For spinal nerve ligation experiments, the timing of antagonist administration depended upon the route of administration. With i.c.v. administration, chlorisondamine or its vehicle was given 24 hours prior to further manipulation. On the day of the experiment, a baseline allodynia score was determined and then A-85380 or its vehicle control was given and measures taken at 15, 30 and 60 minutes post agonist injection. Dose response curves for i.p., i.d. and DRG administration were also determined using this time line. […]
# [3] = given systemically (i.p.); cited from earlier work
# acute thermal pain [4] = assay: rat paw withdrawal model of acute thermal pain, normal rats; assay type: in vivo; details: chlorisondamine 0.4 μmol/kg i.p. 30 min prior, A-85380 0.75 μmol/kg i.p.
# From the text: For the assessment of acute pain, a paw thermal stimulator was used to evaluate nociceptive responses to an acute thermal stimulus (Anesthesiology Research Laboratory, Department of Anesthesiology, University of California at San Diego, La Jolla, Calif.). The device and behavioral procedure have been described previously (Hargreaves et al., A new and sensitive method for measuring thermal nociception in cutaneous hyperalgesia, Pain 1988, 32:77-88; Dirig et al., Characterization of variables defining hind paw withdrawal latency evoked by radiant thermal stimuli, J. Neurosci. Meth. 1997; 76:183-191). Briefly, rats were placed in Plexiglas boxes on a glass surface maintained at 30° C. and allowed to acclimate for 30 minutes. The measured nociceptive response was the latency to withdraw the hind paw when heated by light from a focused projector lamp (current set at 4.8 A). The final score was the mean of the latencies for the left and right paw. […]
# (§1) For acute thermal pain experiments, a baseline withdrawal threshold was determined, and then chlorisondamine or its vehicle was administered. […]
# The effect of systemically administered chlorisondamine in a model of acute thermal pain was examined. […] The effect of systemically administered chlorisondamine (0.4 μmol/kg, i.p.) on A-85380 (0.75 μmol/kg, i.p.) was assessed.
# persistent pain = assay: formalin model of persistent pain (phase two); assay type: in vivo, rat; details: A-85380 0.75 μmol/kg i.p.
# Experimental: The formalin test was used as an assessment of persistent pain. The method, described previously (Bannon et al. 1998) is briefly as follows. Following acclimation to the test environment, 50 μl of a 5% formalin solution was injected subcutaneously into the dorsal surface of one of the rear paws. Only phase two, defined as the 20 minute period from 30 to 50 minutes post formalin injection, was scored for nocifensive behaviors including flinching, licking, and biting.
# For formalin experiments, chlorisondamine or its vehicle was infused either 24 h or 40-50 minutes prior to further manipulation. A-85380 was then injected and, 5 minutes later, formalin was injected into the paw. Measures were taken between 30 and 50 minutes post formalin injection.
# The effect of centrally and systemically administered chlorisondamine in a model of persistent pain was examined. Using phase two of the formalin model of persistent pain, chlorisondamine (10 μg) was administered i.c.v. 24 hours prior to the systemic administration of A-85380.
# acute thermal pain [5] = assay: rat paw withdrawal model of acute thermal pain using neuropathic rats; assay type: in vivo; details: chlorisondamine 0.4 μmol/kg i.p., A-85380 0.75 μmol/kg i.p.
# From the text: For the assessment of acute pain, a paw thermal stimulator was used to evaluate nociceptive responses to an acute thermal stimulus (Anesthesiology Research Laboratory, Department of Anesthesiology, University of California at San Diego, La Jolla, Calif.). The device and behavioral procedure have been described previously (Hargreaves et al., A new and sensitive method for measuring thermal nociception in cutaneous hyperalgesia, Pain 1988, 32:77-88; Dirig et al., Characterization of variables defining hind paw withdrawal latency evoked by radiant thermal stimuli, J. Neurosci. Meth. 1997; 76:183-191). Briefly, rats were placed in Plexiglas boxes on a glass surface maintained at 30° C. and allowed to acclimate for 30 minutes. The measured nociceptive response was the latency to withdraw the hind paw when heated by light from a focused projector lamp (current set at 4.8 A). The final score was the mean of the latencies for the left and right paw. To avoid tissue damage, the maximal response latency prior to automatic shutoff of the lamp was 20.5 sec.
# as §1
# To address this concern, neuropathic rats were assessed in the acute thermal model of paw withdrawal. […]
# [6] = chlorisondamine 10 μg i.c.v. 24 hours prior
compound,measurement,setting,value
"Cl.Cl.c1cncc(OC[C@@H]2CCN2)c1 [A-85380, 3-(2(S)-azetidinylmethoxy)pyridine dihydrochloride]",behaviors induced immediately following injection,"[1]; 0.5-1.0 μmol/kg, i.p.",prostration and ataxia
same,time point by which prostration and ataxia abated,"[1]; 0.5-1.0 μmol/kg, i.p.",≤ 15 min
same,side effects with peripheral NNRs blocked,"[1]; chlorisondamine 0.4 μmol/kg i.p. pretreatment, A-85380 at increased dose",significant increase in side effects
same,side effects with central NNRs blocked,"[1]; chlorisondamine 10 μg i.c.v. pretreatment, A-85380 at increased dose",almost no side effects
same,side effects accompanying the reduction in allodynia,"[1]; given systemically (i.p.), no antagonist","prostration, ataxia, bracing and dyspnea"
same,anti-allodynia (paw withdrawal threshold),[2]; 10 μg infused onto the L5 DRG,significant anti-allodynia
same,duration of anti-allodynia,[2]; 10 μg infused onto the L5 DRG,15 min
same,anti-allodynia (paw withdrawal threshold),[2]; 20 μg infused onto the L5 DRG,significant anti-allodynia
same,duration of anti-allodynia,[2]; 20 μg infused onto the L5 DRG,30 min
same,anti-allodynia in the affected paw (paw withdrawal threshold),"[2]; 10, 20 and 50 μg/rat i.d. into plantar surface of contralateral (unaffected) paw, dihydrochloride",all three doses of A-85380 induced a significant anti-allodynia; also recorded: equivalent or greater anti-allodynia
same,anti-allodynia in the affected paw (paw withdrawal threshold),"[2]; 10, 20 and 50 μg/rat i.d. into plantar surface of ipsalateral (affected) paw, dihydrochloride",only the 50 μg dose of A-85380 had an anti-allodynic effect; also recorded: small but significant anti-allodynia
same,dose required for significant reduction in allodynia,[2]; central NNRs blocked with chlorisondamine 10 μg i.c.v.,3 µmol/kg
same,reduction in allodynia with peripheral NNRs blocked,"[2]; chlorisondamine 0.4 μmol/kg i.p. pretreatment, systemic A-85380",significant reduction in allodynia
same,reduction in allodynia with central NNRs blocked,"[2]; chlorisondamine 10 μg i.c.v. pretreatment, systemic A-85380",significant reduction in allodynia
same,"potency to increase paw withdrawal threshold, i.p. compared with i.d. administration","[2]; doses converted to equivalent systemic dose, 15 minute time point",similar
same,"potency to increase paw withdrawal threshold, DRG administration compared with i.p. and i.d.","[2]; doses converted to equivalent systemic dose, 15 minute time point, dihydrochloride",decidedly more potent; also recorded: most potent
same,dose required for significant reduction in allodynia,[2]; given without an antagonist,0.75 µmol/kg
same,anti-allodynia (paw withdrawal threshold),"[2]; infused directly onto the L5 DRG, different doses",dose-dependent anti-allodynic effect
same,dose required for significant reduction in allodynia,[2]; peripheral NNRs blocked with chlorisondamine 0.4 μmol/kg i.p.,1.5 µmol/kg
same,anti-allodynia (paw withdrawal threshold),"[2]; systemically administered (i.p.), no antagonist, dihydrochloride","significant, dose-dependent decrease; also recorded: dose dependent anti-allodynia; also recorded: dose-dependent anti-allodynia"
same,crossing of the blood brain barrier,[3],readily crosses the blood brain barrier
"O=C(NO)c1cncc(N2C[C@H]3CNC[C@H]32)c1 [A-420503, (IR, 5S) 5-(3,6-diazabicyclo [3.2.0]hept-6-yl)-N-hydroxy-nicotinamide]",side effects,"[1]; 62 μmol/kg, i.p.",without any notable side effects
same,anti-allodynia,"[2]; 62 μmol/kg, i.p.",significant anti-allodynia
same,effects at the DRG after pretreatment with an NMR antagonist,[2]; DRG administration,blocked
same,anti-allodynia,"[2]; at the DRG, equivalent to 4.77 μmol/kg i.p.",significant anti-allodynia
"C[N+](C)(C)CCCCCC[N+](C)(C)C [Hexamethonium, hexamethonium]",effect of antagonist pretreatment on A-85380 induced anti-allodynia,[2]; hexamethonium 19 μmol/kg i.p. 30 minutes prior,blocked
"CNC1(C)C2CCC(C2)C1(C)C (stereo not drawn) [Mecamylamine, mecamylamine hydrochloride]",effect of antagonist pretreatment on prostration and ataxia following A-85380 injection,[1]; mecamylamine 1 μmol/kg i.p. 30 minutes prior to A-85380,blocked
same,effect of antagonist pretreatment on A-85380 induced anti-allodynia,"[2]; mecamylamine 1 μmol/kg i.p. 30 minutes prior, hydrochloride",completely blocked
same,effect of antagonist pretreatment on A-85380 induced anti-allodynia,"[2]; mecamylamine 1 μmol/kg i.p. 30 minutes prior, listed as mecamylamine, hydrochloride",full blockade
"C[N+](C)(C)CC[N+]1(C)Cc2c(Cl)c(Cl)c(Cl)c(Cl)c2C1 [chlorisondamine, chlorisondamine diiodide]",effect of antagonist pretreatment on A-85380 induced anti-allodynia,[2]; chlorisondamine 0.4 μmol/kg i.p. 30 minutes prior,completely blocked
same,effect of antagonist pretreatment on anti-allodynia induced by A-85380 infused onto the DRG,"[2]; chlorisondamine 0.4 μmol/kg i.p. 30 minutes prior, A-85380 20 μg onto DRG",completely blocked
same,effect of antagonist pretreatment on A-85380 induced anti-allodynia,[2]; [6],completely blocked
same,effect of antagonist pretreatment on A-85380 induced antinociception (paw withdrawal latency),acute thermal pain [4],no effect; also recorded: completely ineffective
same,"effect of antagonist pretreatment on A-85380 induced analgesia (flinches, phase two)",persistent pain; chlorisondamine 0.4 μmol/kg i.p. 40-50 minutes prior to formalin,no significant attenuation; also recorded: no significant effect
same,"effect of antagonist pretreatment on A-85380 induced analgesia (flinches, phase two)",persistent pain; [6],completely blocked
same,effect of antagonist pretreatment on A-85380 induced antinociception (paw withdrawal latency),acute thermal pain [5],did not alter; also recorded: does not alter
